US6518035B1, “Targeted methods of drug screening using co-culture methods” (Rosetta Inpharmatics, Inc., priority 1998, dated 2003)
Counter-ions that a name gives are not always drawn. Like-named read-outs stand apart in the source and are kept apart here.

What was measured:
[1] = test system: yeast target and decoy cells; assay: Growth (O.D.600) of the target/decoy yeast co-cultures in the MicroSource library screen; type: cell-based, Saccharomyces cerevisiae; settings: both concentrations (5 μg/ml and 0.5 μg/ml)
Description: The plates were incubated at 30° C.

Erg11p = Erg11p (Saccharomyces cerevisiae, UniProt P10614); settings: 25 target and 25,000 decoy cells (1:1000), 225 μl, 30° C., up to ten days
Description: Target yeast cells overexpressing the ERG11 gene and GFP were mixed with decoy cells at a ratio of 1:1000 and portioned into 96-well plates. Each well contained 25 target cells and 25,000 decoy cells in 0.225 ml YM medium plus 2% casamino acids. 560 generic drugs from the MicroSource™ library were dispensed to each well to a final concentration of 5 μg/ml or 0.5 μg/ml and 1% DMSO. The plates were incubated at 30° C. for ten days.
To determine the specificity of the TDS assay, a chemical library of 560 compounds was screened using the same strains described in FIG. 2. […] The conditions chosen for the co-culture were 25 target cells and 25,000 decoy cells (1:1000 target: decoy ratio) in a volume of 225 μl.
Overnight cultures of the target and decoy cells were grown in YM medium plus 2% casamino acids to maintain selection for both episomal plasmids. One large batch of fresh medium (YM-Cas) was prepared that contained both target and decoy cells. This culture was diluted to 1×10^5 cells/ml and dispensed into the 96-well plates. Drugs from the Microsource library were then added to the cultures at two concentrations: 5 μg/ml plus 1% DMSO; and 0.5 μg/ml plus 0.1% DMSO. The plates were incubated at 30° C. Fluorescence and O.D.600 measurements were taken twice daily for ten days.

[2] = biological target: T1, ERG11 gene product, lanosterol 14α-demethylase (Saccharomyces cerevisiae, UniProt P10614); assay: TDS co-culture pilot study with clotrimazole: ERG11/GFP-overexpressing target cells mixed with decoy cells, fluorescence readout; type: cell-based; settings: 30° C., 88 h
T1 construct: expressed in transfected cells; host or cells: S. cerevisiae target strain ABY676 (plasmids pAB98 GFP, pAB99 ERG11), co-cultured with decoy strain ABY674 (empty vectors YEplac195, YEplac112)
Description: FIG. 2: A Signal to noise ratios of ERG11-target and decoy co-cultures grown in the presence of clotrimazole. Cultures were prepared at various ratios of target: decoy cells (columns). Each ratio was also prepared at various total number of cells per well and are indicated at the top. Clotrimazole, which inhibits the ERG11 gene product, was introduced by serial dilution (rows). The concentrations of clotrimazole are indicated to the left of the table. The volume of medium in each well was 0.225 ml. The plate was allowed to incubate at 30° C. for 88 h. Fluorescence signal was determined by subtracting the fluorescent values from a medium control plate from the fluorescence values of each well in the test plate. Signal to noise ratios were determined by dividing these corrected values with the corresponding values in the no-drug well in the bottom row. B O.D.600 values of co-cultures in each well after growth. C A fluorescent image of the source plate.
To determine the optimal assay conditions, various target:decoy ratios were tested in the presence of different clotrimazole concentrations (FIG. 2). Clotrimazole is an anti-fungal compound that inhibits the […] gene product, lanosterol 14α-demethylase, a sterol biosynthetic enzyme (Georgopapadakou and Walsh, 1996, Antimicrob Agents Chemother 40:279-291). […]
Target and decoy cells were mixed at 1:10, 1:100 and 1:1000 ratios in the presence of various concentrations of clotrimazole. […] Following incubation at 30° C. for 88 h, the fluorescence from each well was determined. The fluorescent values were corrected for the background fluorescence of the medium are represented as the fold increase over the fluorescent signal from the corresponding no-drug treatment.
The amount of growth of the cells was determined by measuring optical density at 600 nm in a Molecular Devices Spectra Max 250 plate spectrophotometer (FIG. 2B). A fluorescent image of the plate, which served as the source for quantitation of the fluorescent signals, is also presented (FIG. 2C).

Sequence of Erg11p (P10614 whole entry): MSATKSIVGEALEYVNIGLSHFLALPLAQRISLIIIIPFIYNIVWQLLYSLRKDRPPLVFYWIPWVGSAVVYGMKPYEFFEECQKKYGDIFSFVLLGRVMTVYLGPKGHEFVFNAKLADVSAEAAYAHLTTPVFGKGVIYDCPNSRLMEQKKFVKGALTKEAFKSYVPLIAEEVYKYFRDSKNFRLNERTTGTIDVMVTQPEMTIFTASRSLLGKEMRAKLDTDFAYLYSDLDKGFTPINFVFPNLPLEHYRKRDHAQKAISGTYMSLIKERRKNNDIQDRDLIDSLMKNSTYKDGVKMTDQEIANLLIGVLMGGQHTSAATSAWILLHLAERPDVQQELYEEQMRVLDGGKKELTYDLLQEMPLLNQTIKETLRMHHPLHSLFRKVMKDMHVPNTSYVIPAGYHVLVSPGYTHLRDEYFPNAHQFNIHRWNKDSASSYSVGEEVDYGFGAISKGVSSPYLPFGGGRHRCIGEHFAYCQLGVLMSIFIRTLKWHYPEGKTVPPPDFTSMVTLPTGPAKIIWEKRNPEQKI
T1 sequence (P10614 whole entry): as above

`CN[C@@H](C)[C@H](O)c1ccccc1` [ephedrine-HCl] was tested, and the “growth inhibition of co-culture” value [1] was “severely inhibited growth”.
`Clc1ccc(COC(Cn2ccnc2)c2ccc(Cl)cc2Cl)c(Cl)c1` (stereo not drawn) [miconazole] was tested, and the “fluorescent signal of co-culture versus no-drug treatment” value (Erg11p; 0.5 μg/ml drug plus 0.1% DMSO) was “significant positive signals” and the “fluorescent signal of co-culture versus no-drug treatment” value (Erg11p; 5 μg/ml drug plus 1% DMSO) was “too severe a growth inhibition to produce positive signals”.
`CCCCOc1ccc(C(=O)CCN2CCCCC2)cc1` [dyclonine-HCl] was tested, and the “growth inhibition of co-culture” value [1] was “severely inhibited growth”.
For `C[CH2][Hg][S]c1ccccc1C(=O)[O-].[Na+]` [thimerosol], the “growth inhibition of co-culture” value [1] was “severely inhibited growth”.
In the case of `Clc1ccccc1C(c1ccccc1)(c1ccccc1)n1ccnc1` [clotrimazole], the “clotrimazole concentration range producing significant fluorescent signals” value ([2]; 1:10 and 1:100 target:decoy ratios, highest density of cells per well) is reported as 0.2 to 5.6 µg/mL, the “clotrimazole concentration range producing significant fluorescent signals” value ([2]; 1:10 and 1:100 target:decoy ratios, serial dilutions of cells) is reported as 0.2 to 2.8 µg/mL and the “clotrimazole concentration range producing significant fluorescent signals” value ([2]; 1:1000 target:decoy ratio, each of the cell densities) is reported as 0.2 to 5.6 µg/mL. For the same compound, the “fluorescent signal of co-culture versus no-drug treatment” value (Erg11p; 0.5 μg/ml drug plus 0.1% DMSO) was “significant fluorescent signal” and the “fluorescent signal of co-culture versus no-drug treatment” value (Erg11p; 5 μg/ml drug plus 1% DMSO) was “significant fluorescent signal”.
`CC(=O)N1CCN(c2ccc(OCC3COC(Cn4ccnc4)(c4ccc(Cl)cc4Cl)O3)cc2)CC1` (stereo not drawn) [ketoconazole] was tested, and the “fluorescent signal of co-culture versus no-drug treatment” value (Erg11p; 0.5 μg/ml drug plus 0.1% DMSO) was “neither inhibited growth nor produced a positive signal” and the “fluorescent signal of co-culture versus no-drug treatment” value (Erg11p; 5 μg/ml drug plus 1% DMSO) was “significant signal”.
